Measurements taken from patent US10131652B2, “Pyrimidinyloxy benzene derivatives as herbicides” (E. I. DU PONT DE NEMOURS AND COMPANY, priority 2014, dated 2018).

What was measured:
Format in all cases: in vivo
kochia (Kochia scoparia) [1] = assay: Test D postemergence plant response; settings: for Plant response rating (scale 0 to 100), Kochia: 16 g ai/ha; for Kochia plant response rating: 31 g ai/ha, scale 0 to 100 (0 no effect, 100 complete control); for Plant response rating, Kochia: scale 0 to 100, 0 no effect, 100 complete control
Method in brief: (§1)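 Scores reflect visual plant response relative to untreated controls on a 0 to 100 scale, where 100 means complete control. Treatment was postemergence on 2–18 cm plants in peat-based potting medium, with greenhouse assessment 13–15 days later.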

wild oat (Avena fatua) = assay: Test D postemergence plant response; settings: for Plant response rating (scale 0 to 100), Oat, Wild: 16 g ai/ha; for Plant response rating, Oat, Wild: 125 g ai/ha
Method in brief: as §1

[2] = system: chickweed (common chickweed, Stellaria media); assay: Test D postemergence plant response; settings: for Plant response rating (scale 0 to 100), Chickweed: 16 g ai/ha; for Chickweed plant response rating: 31 g ai/ha, scale 0 to 100 (0 no effect, 100 complete control); for Plant response rating, Chickweed: scale 0 to 100, 0 no effect, 100 complete control
Method in brief: as §1

kochia (Kochia scoparia) [3] = assay: Test B pre-/postemergence plant response
Method in brief: (§2)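 Ratings reflect visual injury versus untreated controls, from 0 for no effect to 100 for complete control, assessed roughly 10 days after treatment. Formulation: non-phytotoxic solvent mix with surfactant; pre- and postemergence sprays on plants grown in loam soil and sand.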

[4] = system: pigweed (Amaranthus retroflexus); assay: Test B pre-/postemergence plant response
Method in brief: as §2

corn (Zea mays) = assay: Test B pre-/postemergence plant response
Method in brief: as §2

[5] = system: Italian ryegrass (Lolium multiflorum); assay: Test B pre-/postemergence plant response
Method in brief: as §2

[6] = system: ragweed (common ragweed, Ambrosia elatior); assay: Test B pre-/postemergence plant response
Method in brief: as §2

[7] = system: giant foxtail (Setaria faberii); assay: Test B pre-/postemergence plant response
Method in brief: as §2

[8] = system: wheat (Triticum aestivum); assay: Test B pre-/postemergence plant response
Method in brief: as §2

[9] = system: barnyardgrass (Echinochloa crus-galli); assay: Test B pre-/postemergence plant response
Method in brief: as §2

[10] = system: blackgrass (Alopecurus myosuroides); assay: Test B postemergence plant response
Method in brief: (§3)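 Seedlings in a loam soil and sand mix received a postemergence application of the formulated chemicals at the one- to two-leaf stage (2–10 cm tall). They were kept in a greenhouse for roughly 10 days, then scored for injury relative to untreated plants, 0 meaning no effect and 100 complete control.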

[11] = system: galium (catchweed bedstraw, Galium aparine); assay: Test B postemergence plant response
Method in brief: as §3

[12] = system: small-flower umbrella sedge (Cyperus difformis); assay: Test C flooded paddy test plant response; settings: Flood, 250 g ai/ha; scale of 0 to 100 where 0 is no effect and 100 is complete control; 13 to 15 days
Method in brief: (§4)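 Plants grown to the 2-leaf stage; pots flooded to 3 cm above soil, test compounds applied directly to paddy water, depth maintained throughout. Greenhouse for 13 to 15 days, then visual rating versus controls on a 0–100 scale (0 no effect, 100 complete control).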

[13] = system: ducksalad (Heteranthera limosa); assay: Test C flooded paddy test plant response; settings: Flood, 250 g ai/ha; scale of 0 to 100 where 0 is no effect and 100 is complete control; 13 to 15 days
Method in brief: as §4

rice (Oryza sativa) = assay: Test C flooded paddy test plant response; settings: Flood, 250 g ai/ha; scale of 0 to 100 where 0 is no effect and 100 is complete control; 13 to 15 days
Method in brief: as §4

[14] = system: barnyardgrass (Echinochloa crus-galli); assay: Test C flooded paddy test plant response; settings: Flood, 250 g ai/ha; scale of 0 to 100 where 0 is no effect and 100 is complete control; 13 to 15 days
Method in brief: as §4

[15] = 31 g ai/ha, scale 0 to 100 (0 no effect, 100 complete control)
[16] = 62 g ai/ha, scale 0 to 100, 0 no effect, 100 complete control
[17] = scale 0 to 100, 0 no effect, 100 complete control
[18] = 125 g ai/ha, postemergence, 0 to 100 scale, 0 no effect, 100 complete control
[19] = Postemergence, 500 g ai/ha, 0 to 100 scale (0 no effect, 100 complete control)
[20] = Preemergence, 125 g ai/ha, 0 to 100 scale (0 no effect, 100 complete control)
[21] = Preemergence, 500 g ai/ha, 0 to 100 scale where 0 is no effect and 100 is complete control

N#Cc1cccc(Oc2ncc(Cl)cn2)c1-c1cc(C(F)F)on1 [Compound 180]
100: Plant response rating, Kochia (kochia (Kochia scoparia) [1]; 62 g ai/ha) | Plant response rating, Kochia (kochia (Kochia scoparia) [1]; 125 g ai/ha) | Plant response rating, Kochia (kochia (Kochia scoparia) [3]; [18]) | Plant response rating, Kochia (kochia (Kochia scoparia) [3]; [19]) | Kochia plant response rating (kochia (Kochia scoparia) [3]; [20]) | Plant response rating, Kochia (kochia (Kochia scoparia) [3]; [21]) | Plant response rating, Pigweed [4, 18] | Plant response rating, Pigweed [4, 19] | Pigweed plant response rating [4, 20] | Plant response rating, Pigweed [4, 21] | Plant response rating, Ryegrass, Italian [5, 18] | Plant response rating, Ryegrass, Italian [5, 19] | Plant response rating, Foxtail, Giant [7, 19] | Plant response rating, Foxtail, Giant [7, 21] | Plant response rating, Galium [11, 18] | Plant response rating, Galium [11, 19]
50: Plant response rating, Ragweed [6, 18] | Ragweed plant response rating [6, 20] | Plant response rating, Barnyardgrass [9, 18]
90: Kochia plant response rating (kochia (Kochia scoparia) [1]) | Foxtail, Giant plant response rating [7, 20] | Plant response rating, Wheat [8, 19] | Plant response rating, Barnyardgrass [9, 19] | Plant response rating, Blackgrass [10, 18] | Plant response rating, Blackgrass [10, 19] | Ducksalad plant response rating [13]
60: Plant response rating (scale 0 to 100), Chickweed [2] | Chickweed plant response rating [2] | Plant response rating, Wheat [8, 18]
0: Plant response rating (scale 0 to 100), Oat, Wild (wild oat (Avena fatua)) | Rice plant response rating (rice (Oryza sativa)) | Barnyardgrass plant response rating [14]
5: Oat, Wild plant response rating (wild oat (Avena fatua); [15]) | Oat, Wild plant response rating (wild oat (Avena fatua); [16])
30: Plant response rating, Oat, Wild (wild oat (Avena fatua); [17])
20: Plant response rating, Corn (corn (Zea mays); [18]) | Ryegrass, Italian plant response rating [5, 20] | Barnyardgrass plant response rating [9, 20]
95: Plant response rating, Chickweed ([2]; 125 g ai/ha)
70: Plant response rating, Corn (corn (Zea mays); [19]) | Plant response rating, Ryegrass, Italian [5, 21] | Plant response rating, Ragweed [6, 19] | Plant response rating, Ragweed [6, 21]
85: Plant response rating (scale 0 to 100), Kochia (kochia (Kochia scoparia) [1]) | Plant response rating, Chickweed ([2]; 62 g ai/ha)
80: Plant response rating, Foxtail, Giant [7, 18] | Plant response rating, Barnyardgrass [9, 21] | Sedge, Umbrella plant response rating [12]

Clc1cnc(Oc2ccccc2-c2cc(C3CC3)on2)nc1 [Compound 183]
0: Plant response rating (scale 0 to 100), Oat, Wild (wild oat (Avena fatua)) | Ragweed plant response rating [6, 20] | Rice plant response rating (rice (Oryza sativa)) | Barnyardgrass plant response rating [14]
100: Plant response rating, Kochia (kochia (Kochia scoparia) [1]; 62 g ai/ha) | Plant response rating, Kochia (kochia (Kochia scoparia) [1]; 125 g ai/ha) | Plant response rating, Kochia (kochia (Kochia scoparia) [3]; [18]) | Plant response rating, Kochia (kochia (Kochia scoparia) [3]; [19]) | Plant response rating, Kochia (kochia (Kochia scoparia) [3]; [21]) | Plant response rating, Pigweed [4, 18] | Plant response rating, Pigweed [4, 19] | Plant response rating, Pigweed [4, 21] | Plant response rating, Galium [11, 18] | Plant response rating, Galium [11, 19]
85: Ducksalad plant response rating [13]
75: Sedge, Umbrella plant response rating [12]
60: Chickweed plant response rating [2] | Plant response rating, Ragweed [6, 21] | Plant response rating, Foxtail, Giant [7, 18] | Plant response rating, Wheat [8, 19]
25: Plant response rating, Oat, Wild (wild oat (Avena fatua); [17])
30: Plant response rating (scale 0 to 100), Chickweed [2] | Plant response rating, Corn (corn (Zea mays); [19]) | Plant response rating, Ragweed [6, 19] | Barnyardgrass plant response rating [9, 20]
10: Oat, Wild plant response rating (wild oat (Avena fatua); [16]) | Plant response rating, Corn (corn (Zea mays); [18]) | Plant response rating, Wheat [8, 18]
20: Ryegrass, Italian plant response rating [5, 20] | Plant response rating, Ragweed [6, 18]
65: Plant response rating, Chickweed ([2]; 62 g ai/ha)
70: Plant response rating, Chickweed ([2]; 125 g ai/ha) | Plant response rating, Ryegrass, Italian [5, 19] | Plant response rating, Barnyardgrass [9, 19]
5: Oat, Wild plant response rating (wild oat (Avena fatua); [15])
80: Kochia plant response rating (kochia (Kochia scoparia) [3]; [20]) | Plant response rating, Foxtail, Giant [7, 19] | Foxtail, Giant plant response rating [7, 20] | Plant response rating, Barnyardgrass [9, 21] | Plant response rating, Blackgrass [10, 18]
90: Plant response rating (scale 0 to 100), Kochia (kochia (Kochia scoparia) [1]) | Pigweed plant response rating [4, 20] | Plant response rating, Foxtail, Giant [7, 21] | Plant response rating, Blackgrass [10, 19]
40: Plant response rating, Ryegrass, Italian [5, 18] | Plant response rating, Ryegrass, Italian [5, 21] | Plant response rating, Barnyardgrass [9, 18]
95: Kochia plant response rating (kochia (Kochia scoparia) [1])
